EC50 data for 16 compounds are collected here from US8779157B2, “MGLUR4 allosteric potentiators, compositions, and methods of treating neurological dysfunction” (Vanderbilt University, priority 2009, dated 2014).

SMILES strings stand for the structures.

The assay deals with mGluR4 (UniProt Q14833). In words: mGluR4 potentiation assay (fluorescence, Ca2+ or thallium/GIRK readout; EC20 agonist). Conditions: half maximal effective concentration for mGluR4 potentiation; species of receptor not given. It counts as cell-based, human / rat. The method in brief: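 Human mGluR4 in CHO cells (Ca2+ dye) or rat mGluR4 with GIRK in HEK cells (thallium dye), read kinetically. Potentiation EC50 and maximum fitted from compound concentration-response at fixed agonist.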
With `O=C(Nc1ccc(N2C(=O)C3CCCCN3C2=S)c(Cl)c1)c1ccsc1` (stereo not shown) [Example 1.3.78, N-(3-chloro-4-(1-oxo-3-thioxohexahydroimidazo[1,5-a]pyridin-2(3H)-yl)phenyl)thiophene-3-carboxamide], the concentration giving a half-maximal response (EC50) came out at 1.79 µM.

Regarding `O=C(Nc1ccc(N2C(=O)C3CCCCN3C2=O)c(Cl)c1)c1ccccn1` (stereo not shown) [Example 1.3.2, N-(3-chloro-4-(1,3-dioxotetrahydroimidazo[1,5-a]pyridin-2(1H,3H,5H)-yl)phenyl)picolinamide], the EC50 was 0.814 µM.

For the compound `O=C(Nc1ccc(N2C(=O)C3CCCCN3C2=O)c(Cl)c1)c1ccc(Cl)o1` (stereo not shown) [Example 1.3.8, 5-Chloro-N-(3-chloro-4-(1,3-dioxotetrahydroimidazo[1,5-a]pyridin-2(1H,3H,5H)-yl)phenyl)furan-2-carboxamide], the EC50 is 6.2 µM.

Consider `O=C(Nc1ccc(N2C(=O)C3CCCCN3C2=O)cc1)c1ccccn1` (stereo not shown) [Example 1.3.3, N-(4-(1,3-dioxotetrahydroimidazo[1,5-a]pyridin-2(1H,3H,5H)-yl)phenyl)picolinamide], for which the concentration giving a half-maximal response (EC50) turned out to be 3.12 µM.

Regarding `O=C(Nc1ccc(N2C(=O)C3COCCN3C2=S)c(Cl)c1)c1cccs1` (stereo not shown) [Example 1.3.33, N-(3-Chloro-4-(1-oxo-3-thioxodihydro-1H-imidazo[5,1-c][1,4]oxazin-2(3H,8H,8aH)-yl)phenyl)thiophene-2-carboxamide], the EC50 turned out to be 8.46 µM.

Regarding `CC12CCCCN1C(=O)N(c1ccc(NC(=O)c3ncccc3F)cc1Cl)C2=O` (stereo not shown) [Example 1.3.91, N-(3-chloro-4-(8a-methyl-1,3-dioxohexahydroimidazo[1,5-a]pyridin-2(3H)-yl)phenyl)-3-fluoropicolinamide], the EC50 worked out at 3.79 µM.

`O=C(Nc1ccc(N2C(=O)C3CSCCN3C2=O)c(Cl)c1)c1cccc(F)n1` (stereo not shown) [Example 1.3.42, N-(3-chloro-4-(1,3-dioxodihydro-1H-imidazo[5,1-c][1,4]thiazin-2(3H,8H,8aH)-yl)phenyl)-6-fluoropicolinamide]: the EC50 is 1.17 µM.

On to `O=C(Nc1ccc(N2C(=O)C3CNCCN3C2=O)c(Cl)c1)c1ccccn1` (stereo not shown) [Example 1.3.45], for which the EC50 came to 4.2 µM.

Regarding `O=C(Nc1ccc(N2C(=O)C3CSCCN3C2=O)c(Cl)c1)c1cscn1` (stereo not shown) [Example 1.3.43, N-(3-chloro-4-(1,3-dioxodihydro-1H-imidazo[5,1-c][1,4]thiazin-2(3H,8H,8aH)-yl)phenyl)thiazole-4-carboxamide], the EC50 was 3.76 µM.

On to `O=C(Nc1ccc(N2C(=O)NC3(CCCCCC3)C2=O)c(Cl)c1)c1ccccn1` [Example 1.3.15, N-(3-chloro-4-(2,4-dioxo-1,3-diazaspiro[4.6]undecan-3-yl)phenyl)picolinamide], for which the EC50 amounted to 0.222 µM.

For the compound `O=C(Nc1ccc(N2C(=O)C3CCCCN3C2=S)c(Cl)c1)c1ccccn1` (stereo not shown) [Example 1.3.10], the EC50 came to 0.367 µM.

For `O=C(Nc1ccc(N2C(=O)C3CCCCN3C2=S)c(Cl)c1)c1ncc(F)cc1F` (stereo not shown) [Example 1.3.81, N-(3-chloro-4-(1-oxo-3-thioxohexahydroimidazo[1,5-a]pyridin-2(3H)-yl)phenyl)-3,5-difluoropicolinamide], the 50% effective concentration (EC50) was determined as 0.876 µM.

For the compound `CC12CCCCN1C(=O)N(c1ccc(NC(=O)c3cscn3)cc1Cl)C2=O` (stereo not shown) [Example 1.3.87, N-(3-chloro-4-(8a-methyl-1,3-dioxohexahydroimidazo[1,5-a]pyridin-2(3H)-yl)phenyl)thiazole-4-carboxamide], the EC50 was determined as 2.67 µM.

Take `O=C(Nc1ccc(N2C(=O)C3COCCN3C2=O)c(Cl)c1)c1nccs1` (stereo not shown) [Example 1.3.25, N-(3-Chloro-4-(1,3-dioxodihydro-1H-imidazo[5,1-c][1,4]oxazin-2(3H,8H,8aH)-yl)phenyl)thiazole-2-carboxamide]: the EC50 was 6.32 µM.

Turning to `O=C(Nc1ccc(N2C(=O)C3CCCCN3C2=S)c(Cl)c1)c1cscn1` (stereo not shown) [Example 1.3.80, N-(3-chloro-4-(1-oxo-3-thioxohexahydroimidazo[1,5-a]pyridin-2(3H)-yl)phenyl)thiazole-4-carboxamide], the EC50 worked out at 1.97 µM.

Turning to `CC12CCCCN1C(=S)N(c1ccc(NC(=O)c3cscn3)cc1Cl)C2=O` (stereo not shown) [Example 1.3.95, N-(3-chloro-4-(8a-methyl-1-oxo-3-thioxohexahydroimidazo[1,5-a]pyridin-2(3H)-yl)phenyl)thiazole-4-carboxamide], the concentration for a half-maximal effect (EC50) came to 1.05 µM.

As usually defined, the EC50 is the concentration needed to bring the measured effect to its halfway point.
